Assay results published in patent US20170038365A1, “SMALL MOLECULE INHIBITORS OF 8-OXOGUANINE DNA GLYCOSYLASE-1 (OGG1)” (OREGON HEALTH & SCIENCE UNIVERSITY, priority 2015, published 2017).

Columns and labels:
OGG1 [1] = target: T1, OGG1 (Homo sapiens, UniProt O15527); test: fluorescence-based OGG1 activity assay (TAMRA/BHQ2 8-oxo-Gua substrate); format: biochemical; conditions: read-out: IC50 (OGG1 inhibition)
T1 construct: His tag; made in house; host or cells: bacterial culture (LB media, IPTG induction)
Experimental: The OGG1 activity assay utilized a 17-mer oligodeoxynucleotide that contained an 8-oxo-Gua positioned 6 deoxynucleotides downstream of a 5′-TAMRA fluorophore and a complementary DNA strand that contained a 3′-Black Hole Quencher 2 (BHQ2) (FIG. 1). […] Therefore, inhibitors of OGG1 activity would be expected to result in a weaker fluorescence signal over time compared to a no inhibitor control.
The fluorescence-based assay outlined in FIG. 2A was performed in black, low volume 384-well plates with a final volume of 10 μL per well. […] Plates were incubated for 30 min at 37° C. and TAMRA fluorescence in each well was measured using the Biotek Synergy 4 platereader (Filters=Ex 528/20, Em 600/40. Mirror=Top 570 nm with polarizer). Background-subtracted fluorescence values were calculated for each well and any compound that had ≧40% decrease in fluorescence compared to the no inhibitor control was identified as a hit. […]
Assays to calculate IC50 values of OGG1, NEIL1, and NTH1 were fundamentally similar to the high-throughput screen except that the step for the addition of drug differed and a lower enzyme concentration was used. […] Plates were incubated at 37° C. for 40 min (OGG1), 5 min (NEIL1), and 10 min (NTH1), followed by the measurement of TAMRA fluorescence. […]

OGG1 [2] = target: T1, OGG1; test: OGG1 AP lyase activity on AP site-containing substrate (gel); format: biochemical; conditions: 10 μM compound, compared to no inhibitor control
Experimental: FIG. 5A is a bar graph of OGG1 lyase activity on a substrate containing an AP site. The substrate was incubated without OGG1 (No Enz), with OGG1 (No Inh), or with OGG1+10 μM compound. The top band in each gel corresponds to uncleaved substrate and the bottom band is cleaved product. Mean percent cleavage compared to the no inhibitor control (% Activity) was plotted for three independent experiments. The uncertainties are standard deviations.
(§1) Hydrazides Inhibit the Glycosylase and Lyase Activities of OGG1. To verify the results of the fluorescence-based assay, gel-based assays were performed to detect OGG1-mediated strand cleavage of an 8-oxo-Gua-containing substrate at eight different inhibitor concentrations (FIG. 4). […] There are at least three possibilities that could account for how these molecules inhibit DNA strand cleavage by OGG1. […] This assay used γ-irradiated calf thymus DNA as a substrate and measured the number of free 8-oxo-Gua and FapyGua in solution released by OGG1. […]
(§2) Gel-based assays were performed by combining 4 μL of 2.5×OGG1 (62.5 nM) with 1 μL 10× inhibitor or buffer. […] Samples were analyzed by electrophoresis on a 15% polyacrylamide gel containing 8 M urea and bands were visualized by a FluorChem M imager (Protein Simple). Band intensities were quantified using the Image Studio Lite Software (LI-COR).

OGG1 [3] = target: T1, OGG1; test: OGG1 glycosylase activity on γ-irradiated calf thymus DNA by GC-MS/MS; format: biochemical; conditions: 0.1 μmol inhibitor
Experimental: FIG. 5B is a bar graph of OGG1 glycosylase activity measured on irradiated calf thymus DNA. The number of excised 8-oxo-Gua per 10^6 DNA bases was measured by GC-MS/MS. Graph plots equal the mean of three independent experiments. The uncertainties are standard deviations.
FIG. 5C is a bar graph of OGG1 glycosylase activity measured on irradiated calf thymus DNA. The number of excised FapyGua per 10^6 DNA bases was measured by GC-MS/MS. Graph plots equal the mean of three independent experiments. The uncertainties are standard deviations.
as §1
The enzymatic activities of OGG1, NEIL1 and NTH1 were measured using gas chromatography/isotope-dilution tandem mass spectrometry (GC-MS/MS) and calf thymus DNA samples γ-irradiated at 20 Gy as described in Jaruga et al 2008 infra and Reddy et al, 2013 infra. […]

OGG1 [4] = target: T1, OGG1; test: gel-based OGG1 cleavage assay on 8-oxo-Gua-containing substrate; format: biochemical; conditions: eight inhibitor concentrations 0.008-25 μM
Experimental: FIG. 4A is an image and plot showing a gel-based OGG1 activity assay of compound O8. 8-oxo-Gua-containing substrate was incubated without OGG1 (No Enz), with OGG1 (No Inh), or with OGG1+8 different concentrations (25, 8, 2.5, 0.8, 0.25, 0.08, 0.025, 0.008 μM) of inhibitors. The top band in the gel corresponds to uncleaved substrate and the bottom band is cleaved product. The Y-axis on each graph equals the percent substrate cleavage compared to the no inhibitor control (% Activity). Data points equal the mean of three independent experiments. The uncertainties are standard deviations.
Hydrazides Inhibit the Glycosylase and Lyase Activities of OGG1. To verify the results of the fluorescence-based assay, gel-based assays were performed to detect OGG1-mediated strand cleavage of an 8-oxo-Gua-containing substrate at eight different inhibitor concentrations (FIG. 4). […] This assay used γ-irradiated calf thymus DNA as a substrate and measured the number of free 8-oxo-Gua and FapyGua in solution released by OGG1. […]
as §2

OGG1 [5] = target: T1, OGG1; test: sodium cyanoborohydride trapping assay of OGG1 and substrate; format: biochemical; conditions: 10 μM inhibitor, 1 mM NaBH3CN
Experimental: FIG. 6B is an image and bar graph of Sodium cyanoborohydride trapping of OGG1 and substrate. OGG1 was incubated with 8-oxo-Gua- (top gel), AP site- (bottom gel) or U-containing (last lane in each gel) substrates with or without 10 μM inhibitor or INH. Reactions were performed in the presence of 1 mM NaBH3CN. Top band in each gel corresponds to OGG1 trapped to substrate and the bottom band is untrapped substrate. Bands were quantified in each gel and the percent trapped compared to the no inhibitor control was plotted for each compound. Graph plots equal the mean of three independent experiments. The uncertainties are standard deviations.
FIG. 11 is an image and plot of a dose response for O8 trapping. […] Bands were quantified in each gel and the percent trapped compared to the no inhibitor control (% Trapped) was plotted for each compound. […] Mean T50 values in μM±std. dev. were calculated as described above.
To test whether these inhibitors interfere with catalysis, trapping experiments were conducted by carrying out the OGG1 activity assay in the presence of sodium cyanoborohydride. […] These values are slightly higher, but still very close to the calculated IC50 value for this inhibitor (Table 1).
A total of 4 μL of 2.5×OGG1 (125 nM) was mixed with 1 μL of 10× inhibitor. […] Band intensities were quantified using the Image Studio Lite Software. […]

[6] = target: OGG1 (8-oxoguanine DNA glycosylase-1) (Homo sapiens, UniProt O15527 O15527:1-345); test: EMSA; 50 nM OGG1, 25 nM DNA, on ice 5 min; also trapped by NaBH3CN (FIG. 6B); binding abrogated by ATA, unaffected by the five inhibitors; conditions: tags: His-tag; expressed in bacteria, Ni-NTA purified; label: 5'-TAMRA; 3'-BHQ2 on complement in fluorescence assay
OGG1 (8-oxoguanine DNA glycosylase-1), sequence (O15527 whole entry, one chain of several): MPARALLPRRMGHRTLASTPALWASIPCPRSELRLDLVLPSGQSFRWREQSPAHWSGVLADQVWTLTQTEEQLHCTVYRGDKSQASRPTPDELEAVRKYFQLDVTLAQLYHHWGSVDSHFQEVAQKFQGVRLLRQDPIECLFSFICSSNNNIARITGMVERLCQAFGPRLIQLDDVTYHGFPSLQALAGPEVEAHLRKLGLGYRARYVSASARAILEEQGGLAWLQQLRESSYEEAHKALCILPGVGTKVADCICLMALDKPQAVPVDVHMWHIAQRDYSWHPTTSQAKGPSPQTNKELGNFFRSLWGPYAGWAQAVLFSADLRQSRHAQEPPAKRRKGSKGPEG
Experimental: To test whether these inhibitors affected OGG1 binding to an 8-oxo-Gua or AP site, gel shift assays were performed.
All experiments were performed on ice with pre-cooled reagents. […] 5 μL 2× substrate (50 nM) was added, mixed and kept on ice for 5 min. The reaction was quenched with 10 μL ice-cold 30% glycerol and loaded onto a pre-cooled 8% native gel containing 30% glycerol. The gel was run at 4° C. for 1 h (75 V) and bands were visualized by a FluorChem M imager. Band intensities were quantified using the Image Studio Lite Software.

T1 sequence (O15527 whole entry): as the sequence (O15527 whole entry, one chain of several) above

| IC50 (OGG1 [1]) | effect on OGG1-induced cleavage of an AP site (AP lyase activity) (OGG1 [2]) | OGG1-mediated excision of 8-oxo-Gua and FapyGua (OGG1 [3]) | Molecule | other results |
| --- | --- | --- | --- | --- |
| > 50000 nM |  |  | NC(=O)c1cc2ccccc2cc1O [3-hydroxy-2-naphthamide] |  |
| 75 nM |  |  | NNC(=O)c1cc2ccccc2cc1O [3-hydroxy-2-naphthohudrazide] |  |
|  | no effect | little to no decrease | Cc1cc(C(=O)NNCc2ccccc2)no1 [ICD, isocarboxazid] |  |
|  | no effect | little to no decrease | NNC(=O)c1ccncc1 [INH, isoniazid] | inhibition of OGG1-mediated strand cleavage of 8-oxo-Gua-containing substrate (OGG1 [4]): no inhibition; effect on trapping of OGG1 (Schiff base formation) on 8-oxo-Gua- and AP site-containing substrates (OGG1 [5]): no effect |
|  |  |  | 8-oxo-Gua 17-mer duplex (dsDNA, n is 8-oxo-guanine; complement SEQ:2 appears printed 3'-5' [6 (8-oxo-guanine)]) DNA 1: TCACCGTCGTACGACTC DNA 2: GAGTCGTACGACGGTGA | binding result [6]: binds |
